From US4868162A, “Antiviral agent” (Teijin Limited, priority 1985, dated 1989)
Converted amounts (≈) assume the structure as drawn.

Tests used:
[1] = system: herpes simplex type I virus (KOS strain); test: Plaque reduction in herpes simplex type I infected Vero cells (Example 3, 2,000 pfu/ml); format: cell-based; details: for Therapeutic index MTD/ED50: HSV-1 KOS 2,000 pfu/ml, 2880 min; for EC50: Human alphaherpesvirus 1, HSV-1 KOS 2,000 pfu/ml, 48-hour culture, read-out: ED50 (effective dose which suppressed the formation of plaques by 50% in number)
Description: (§1) Vero cells. were cultured in Eagle essential medium (MEM) containing 5% fetal calf serum (FCS) and were made to proliferate after the monolayer cell culture method. The cells were inoculated with 0.1 ml of herpes simplex type I virus (KOS strain) of 2,000 pfu/ml concentration, which were made to be adsorbed by the host cells at 37° C. for 1 hour. The virus that were not yet adsorbed were washed away with a 2% CS-MEM medium and then test compounds, inclusive of the compounds of this invention, were added to the cultures respectively in concentration of 0.01~1,000 μg/ml.
(§2) After 48-hour culture in 2% CS-MEM medium was over, the effective dose of each test compound which suppressed the formation of plaques by 50% in number (ED50) and the minimum toxic dose (MTD) which caused the cytotoxicity were measured.

in vitro [2] = format: cell-based, African green monkey; details: monkey, vero cells
Description: as §1, §2

[3] = system: herpes simplex type I virus (KOS strain); test: Plaque reduction in herpes simplex type I infected Vero cells (Example 2, 10,000 pfu/ml); format: cell-based; details: HSV-1 KOS 10,000 pfu/ml; for EC50: Human alphaherpesvirus 1, 48-hour culture, read-out: ED50 (effective dose which suppressed the formation of plaques by 50% in number); for EC50 / Therapeutic index MTD/ED50: Vero cells; for Therapeutic index MTD/ED50: 2880 min
Description: Vero cells were cultured in Eagle minimum
1 medium (MEM) containing 5% calf serum (CS) and were made to proliferate after the monolayer cell culture method. The cultured cells were inoculated with 0.1 ml of herpes simplex type I virus (KOS strain) of 10,000 pfu/ml concentration, which were left to be adsorbed by the host cells at 37° C. for 1 hour. The test compounds, inclusive of the compounds of this invention, were added to the cultures respectively in concentration of 0.001~1,000 μg/ml.
(§3) After 48-hour culture in 2% CS-MEM medium was over, the effective dose of each test compound which suppressed the formation of plaques by 50% in number (EDs) and the minimum toxic dose (MTD) which caused the cytotoxicity were measured.

in vitro [4] = format: cell-based, African green monkey; details: monkey, vero cells; remark: listed apart in the source
Description: as §3, with “Vero cells were cultured in Eagle minimum 1 medium (MEM) containing 5% calf serum (CS) and were made to proliferate after the monolayer cell culture method. […] After” for “After”

[5] = Cytotoxicity, minimum toxic dose in Vero cells (Example 1); format: cell-based, African green monkey; details: monkey
Description: (§4) Vero cells were cultured in Eagle minimum essential medium (MEM) containing 5% calf serum (CS) and were made to proliferate by means of monolayer cell culture. The cells were inoculated with 0.1 ml of herpes simplex type I virus (KOS strain) adjusted to 1,000 pfu/ml, which were allowed to hold on the host cells by adsorption for 1 hour at 37° C. Thereafter, the test compound, inclusive of the compounds of this invention, were added thereto respectively in concentration of 0.01~1,000 μg/ml.
(§5) After 48-hour culture in CS-MEM medium was over, the effective dose of each test compound which suppressed the formation of plaques by 50% in number (ED50) and the minimum toxic dose (MTD) which caused the cytotoxicity were measured.

[6] = system: herpes simplex type I virus (KOS strain); test: Plaque reduction in herpes simplex type I infected Vero cells (Example 1, 1,000 pfu/ml); format: cell-based; details: for Therapeutic index MTD/ED50: HSV-1 KOS 1,000 pfu/ml, 2880 min; for EC50: Human alphaherpesvirus 1, HSV-1 KOS 1,000 pfu/ml, 48-hour culture, read-out: ED50 (effective dose which suppressed the formation of plaques by 50% in number)
Description: as §4, §5

O=C(OC[C@H]1O[C@@H](n2cc(F)c(=O)[nH]c2=O)C[C@@H]1OC(=O)c1ccccc1)c1ccccc1 [3',5'-dibenzoyl-5-fluoro-2'-deoxyuridine]
Therapeutic index MTD/ED50 [1]: 893 | EC50 [1]: 0.112 µg/mL (≈ 0.246 µM) | MCC at 48 h (in vitro [2]): 100 µg/mL

CCCCCCCCCC(=O)OC[C@H]1O[C@@H](n2cc(F)c(=O)[nH]c2=O)C[C@@H]1OC(=O)CCCCCCCCC [3',5'-didecanoyl-5-fluoro-2'deoxyuridine, 3',5'-didecanoyl-5-fluoro-2'-deoxyuridine]
EC50 [3]: 0.038 µg/mL (≈ 0.0685 µM) | Therapeutic index MTD/ED50 [3]: 2,600 | MCC at 48 h (in vitro [4]): 100 µg/mL

CCCCCCCCCCCC(=O)OC[C@H]1O[C@@H](n2cc(F)c(=O)[nH]c2=O)C[C@@H]1OC(=O)CCCCCCCCCCC [3',5'-didodecanoyl-5-fluoro-2'-deoxyuridine]
MCC at 48 h ([5]; vero cells): 100 µg/mL | Therapeutic index MTD/ED50 [6]: 1,900 | EC50 [6]: 0.054 µg/mL (≈ 0.0884 µM)

CCCCCCCCCCCCCCCC(=O)OC[C@H]1O[C@@H](n2cc(F)c(=O)[nH]c2=O)C[C@@H]1OC(=O)CCCCCCCCCCCCCCC [3',5'-dihexadecanoyl-5-fluoro-2'-deoxyuridine]
MCC at 48 h ([5]; vero cells): 150 µg/mL | Therapeutic index MTD/ED50 [6]: 2,000 | EC50 [6]: 0.077 µg/mL (≈ 0.106 µM)

CCCCCCCC(=O)OC[C@H]1O[C@@H](n2cc(F)c(=O)[nH]c2=O)C[C@@H]1OC(=O)CCCCCCC [3',5'-dioctanoyl-5-fluoro-2'-deoxyuridine]
EC50 [3]: 0.018 µg/mL (≈ 0.0361 µM) | Therapeutic index MTD/ED50 [3]: 5,600 | effective dose relative to that of Acyclovir for the same effect ([3]; fraction of Acyclovir effective dose): about 1/400 | MCC at 48 h (in vitro [4]): 100 µg/mL

CCCCCCCC(=O)OC[C@H]1O[C@@H](n2cc(I)c(=O)[nH]c2=O)C[C@@H]1OC(=O)CCCCCCC [3',5'-dioctanoyl-5-iodo-2'-deoxyuridine]
Therapeutic index MTD/ED50 [1]: 35 | EC50 [1]: 0.285 µg/mL (≈ 0.47 µM) | MCC at 48 h (in vitro [2]): 10 µg/mL

CCCCCCCCCCCCCC(=O)OC[C@H]1O[C@@H](n2cc(F)c(=O)[nH]c2=O)C[C@@H]1OC(=O)CCCCCCCCCCCCC [3',5'-ditetradecanoyl-5-fluoro-2'-deoxyuridine]
MCC at 48 h ([5]; vero cells): 100 µg/mL | Therapeutic index MTD/ED50 [6]: 2,000 | EC50 [6]: 0.049 µg/mL (≈ 0.0735 µM)

O=c1[nH]c(=O)n([C@H]2C[C@H](O)[C@@H](CO)O2)cc1F [5-fluoro-2'-deoxyuridine, reference compound]
MCC at 48 h ([5]; Vero cells, Example 1, 48-hour culture, read-out: MTD (minimum toxic dose which caused the cytotoxicity)): 0.1 µg/mL | Therapeutic index MTD/ED50 [6]: 10 | EC50 [6]: 0.01 µg/mL (≈ 0.0406 µM)

Nc1nc2c(ncn2COCCO)c(=O)[nH]1 [9-(2-hydroxyethoxymethyl)guanine, reference compound]
Therapeutic index MTD/ED50 [1]: 279 | EC50 [1]: 3.36 µg/mL (≈ 14.9 µM) | MCC at 48 h (in vitro [2]): 1000 µg/mL | EC50 [3]: 7.26 µg/mL (≈ 32.2 µM) | Therapeutic index MTD/ED50 [3]: 140 | MCC at 48 h ([5]; vero cells): 1000 µg/mL | MCC at 48 h (in vitro [4]): 1000 µg/mL | Therapeutic index MTD/ED50 [6]: 1,000 | EC50 [6]: 0.991 µg/mL (≈ 4.4 µM)
